From patent publication US7410797B2, “Meningeal-derived stem cells” (priority 2002, dated 2008) come the findings set out here.

One assay has as its system Cells from the meninges. Description: Neural differentiation of meningeal-derived stem cells in induction media. In kind it is cell-based. The settings on record: for effect on neural differentiation compared with dexamethasone: used as substitutes for dexamethasone. As for the experimental part: Cells from the meninges that are allowed to become 70% confluent (FIG. 2A) are susceptible to differentiating into nerve under two conditions: antioxidant treatment and steroid hormone treatment. […] This can also be achieved with other antioxidants (i.e., reducing agents), such as butylated hydroxyanisole (BHA) (approximately 200 μM), dithiothreitol (DTT; i.e., Cleland's reagent), as well as dithioerythritol, tributylphosphine, iodoacetamide, tris-phosphine HCl, deoxythymidine-triphosphate trilithium salt, diethylthiatricarbocyanine perchlorate, diethylthiatricarbocyanine iodide and DECROLINE D (available from BASF Corporation; Mount Olive, N.J.; generic name zinc formaldehyde sulfoxylate). These conditions are similar to those used to differentiate bone marrow-derived stem cells and adipose-derived stem cells (D. Woodbury et al., “Adult rat and human bone marrow stromal cells differentiate into neurons,” J. Neuroscience Res., 61(4):364-70 (2000)). The cells that form have a bipolar morphology and express nerve-specific markers.
The cells differentiate into what are morphologically distinct subsets of neurons when exposed to small concentrations (e.g, 100 nM) of dexamethasone; a steroid hormone.
These may therefore be used as substitutes for dexamethasone. Other steroids that may be used in accordance with this embodiment of the present invention include pregnenolone, aldosterone, testosterone, estradiol and cortisol.

The subject of the next assay is Dural cells. Description: Osseous differentiation of dural cells plated on substrate (alkaline phosphatase staining). In kind it is cell-based. The note with it: substrate 100 μg/cm^2. The method, then:
Dural cells were forced to adopt a bony phenotype by two separate methods. The first included plating these cells on a MATRIGEL or laminin substrate (100 μg/cm^2).

For `OCCS` [β-mercaptoethanol], the “differentiation into neural-like cells” value in the assay on Cells from the meninges (pre-induction media with 1 mM β-mercaptoethanol for 24 hours, then induction media DMEM, 5 mM β-mercaptoethanol, cells 70% confluent) is given as “differentiate into neural-like cells within six hours”.
As to `C=C1/C(=C\C=C2/CCC[C@]3(C)[C@@H]([C@H](C)CCCC(C)(C)O)CC[C@@H]23)C[C@@H](O)C[C@@H]1O` [1,25-dihydroxy vitamin D3], the “effect on neural differentiation compared with dexamethasone” value with Cells from the meninges is “elicited similar effects to dexamethasone”.
Still for that read-out and setting: with `CC1=C(/C=C/C(C)=C/C=C/C(C)=C/C=O)C(C)(C)CCC1` [retinaldehyde] the entry was “elicited similar effects to dexamethasone”; with vitamin A, “elicited similar effects to dexamethasone”; with `CC1=C(/C=C/C(C)=C/C=C/C(C)=C/CO)C(C)(C)CCC1` [retinol], “elicited similar effects to dexamethasone”.
Consider laminin, for which, in the assay with Dural cells, the “expression of alkaline phosphatase (differentiated bone marker)” value is reported as “expressed alkaline phosphatase (a differentiated bone marker) within seven days”.
